Data: US20240276978A1, “Method for Dispersing Live Predatory Mites of the Phytoseiulus Genus Which Are Used in Biocontrol” (Bioline Agrosciences France, priority 2020, published 2024)

Tests used:
[1] = Thickening agent solution equivalent to the standard; type: physicochemical; settings: at concentration tested (g/L): alginate 10, modified corn starch 34, amylopectin 67, carrageenans 3, chitosan 100, dextrin 46, guar 2, xanthan 2, glycerol 860, konjac 4, Carbomer 940 4, Gel Maker EMU 4.4, PVP 60, carboxymethylcellulose 30, hydroxypropylcellulose 30, calcium chloride 280, potassium chloride 280, potassium sulfate 140
Phytoseiulus persimilis = assay: "Toxicity" of thickening agent to persimilis at 12 hours; type: in vivo; settings: concentration tested (g/L): alginate 10, modified corn starch 34, carrageenans 3, guar 2, xanthan 2, glycerol 860, konjac 4, Carbomer 940 4, Gel Maker EMU 4.4, PVP 60, carboxymethylcellulose 30
Method: “Non-toxic” means less than 20% of biocontrol agents dead at the end of 12 hours.
A little solution containing the persimilis is kept in order to evaluate any possible “toxicity” at 12 hours.

| Compound | Equivalent to the standard [1] | “Toxicity” (Phytoseiulus persimilis) |
| --- | --- | --- |
| [Cl-].[K+] [Potassium chloride] | No |  |
| OCC(O)CO [Glycerol] | Yes | Yes |
| O=S(=O)([O-])[O-].[K+].[K+] [Potassium sulfate] | no |  |
| [Ca+2].[Cl-].[Cl-] [Calcium chloride] | No |  |
